# Data taken from PubChem BioAssay AID328 (DTP/NCI, 2004).
# Where “and” joins values, the source holds several entries; their conditions need not be identical. Equal values may be shown once. Toxic doses and inconclusive results are not listed.
# Tested on: BDF1 mice, P388 leukemia ip, median survival T/C
# Assay: NCI In Vivo Anticancer Drug Screen. Data for tumor model P388 Leukemia (intraperitoneal) in B6D2F1 (BDF1) mice
# Conditions: endpoint: median survival time, higher = longer survival
# Outline: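 Each value expresses how treatment altered survival: treated-mouse outcome over vehicle-mouse outcome, both groups bearing the transplanted tumour.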
# [1] = dose: 50.0 mg/kg/injection, schedule: Q01DX009 (ip), vehicle: saline with Tween-80
# [2] = dose: 100.0 mg/kg/injection, schedule: Q01DX009 (ip), vehicle: saline with Tween-80
# [3] = dose: 200.0 mg/kg/injection, schedule: Q01DX009 (ip), vehicle: saline with Tween-80
# [4] = dose: 100.0 mg/kg/injection, schedule: Q04DX003 (ip), vehicle: saline with Tween-80
# [5] = dose: 200.0 mg/kg/injection, schedule: Q04DX003 (ip), vehicle: saline with Tween-80
# [6] = dose: 400.0 mg/kg/injection, schedule: Q04DX003 (ip), vehicle: saline with Tween-80
# [7] = dose: 1.5 mg/kg/injection, schedule: Q01DX009 (ip), vehicle: saline
# [8] = dose: 12.5 mg/kg/injection, schedule: Q01DX009 (ip), vehicle: water
# [9] = dose: 25.0 mg/kg/injection, schedule: Q04DX003 (ip), vehicle: water
# [10] = dose: 50.0 mg/kg/injection, schedule: Q04DX003 (ip), vehicle: water
# [11] = dose: 4.0 mg/kg/injection, schedule: Q01DX009 (ip), vehicle: saline
# [12] = dose: 6.0 mg/kg/injection, schedule: Q01DX009 (ip), vehicle: saline
# [13] = dose: 12.5 mg/kg/injection, schedule: Q01DX009 (ip), vehicle: saline
# [14] = dose: 25.0 mg/kg/injection, schedule: Q04DX003 (ip), vehicle: saline
structure (smiles),measurement,setting,value
C(=N\c1ncn[nH]1)/c1ccco1,T/C,[1],111 % of control
same,T/C,[2],99 % of control
same,T/C,[3],102 % of control
CC(CCC(C)OS(C)(=O)=O)OS(C)(=O)=O (stereo not drawn),T/C,"dose: 2.0 mg/kg/injection, schedule: Q01DX010 (ip), vehicle: saline",100 % of control
same,T/C,"dose: 4.0 mg/kg/injection, schedule: Q01DX010 (ip), vehicle: saline",95 % of control
same,T/C,"dose: 8.0 mg/kg/injection, schedule: Q01DX010 (ip), vehicle: saline",118 % of control
same,T/C,"dose: 16.0 mg/kg/injection, schedule: Q01DX010 (ip), vehicle: saline",122 % of control
CCCC1(C)NC(=O)NC1=O (stereo not drawn),T/C,[4],104 % of control
same,T/C,[5],113 % of control
same,T/C,[6],90 % of control
COC1OC(C)C(O)C(O)[CH]1[Hg][O]C(C)=O (stereo not drawn),T/C,"dose: 0.18 mg/kg/injection, schedule: Q01DX009 (ip), vehicle: saline",111 % of control
same,T/C,"dose: 0.37 mg/kg/injection, schedule: Q01DX009 (ip), vehicle: saline",105 % of control
same,T/C,"dose: 0.75 mg/kg/injection, schedule: Q01DX009 (ip), vehicle: saline",94 % of control and 105 % of control
same,T/C,[7],86 % of control and 111 % of control
O=C(Nc1ccc(F)cc1)C(F)(F)F,T/C,[1],106 % of control
same,T/C,[2],98 % of control
same,T/C,[3],105 % of control
O=c1[nH]c2ccccc2c(=O)n1C1CCCCC1,T/C,[8],111 % of control
same,T/C,"dose: 12.5 mg/kg/injection, schedule: Q04DX003 (ip), vehicle: water",96 % of control
same,T/C,"dose: 25.0 mg/kg/injection, schedule: Q01DX009 (ip), vehicle: water",111 % of control
same,T/C,[9],100 % of control
same,T/C,[10],107 % of control
same,T/C,"dose: 100.0 mg/kg/injection, schedule: Q01DX009 (ip), vehicle: water",106 % of control
same,T/C,"dose: 100.0 mg/kg/injection, schedule: Q04DX003 (ip), vehicle: water",105 % of control
same,T/C,"dose: 200.0 mg/kg/injection, schedule: Q01DX009 (ip), vehicle: water",101 % of control
same,T/C,"dose: 400.0 mg/kg/injection, schedule: Q01DX009 (ip), vehicle: water",101 % of control
CCc1nc(N)nc(N)c1-c1ccc(Cl)c(Cl)c1,T/C,"dose: 6.25 mg/kg/injection, schedule: Q01DX010 (ip), vehicle: carboxymethylcellulose (CMC)",110 % of control
same,T/C,"dose: 8.0 mg/kg/injection, schedule: Q01DX009 (sc), vehicle: Klucel (hydroxypropylcellulose) (HPC)",90 % of control
same,T/C,"dose: 8.0 mg/kg/injection, schedule: Q03HX024 (ip), vehicle: Klucel (hydroxypropylcellulose) (HPC)",90 % of control
same,T/C,"dose: 12.5 mg/kg/injection, schedule: Q01DX010 (ip), vehicle: carboxymethylcellulose (CMC)",100 % of control
same,T/C,"dose: 25.0 mg/kg/injection, schedule: Q01DX010 (ip), vehicle: carboxymethylcellulose (CMC)",90 % of control
same,T/C,"dose: 32.0 mg/kg/injection, schedule: Q04DX003 (ip), vehicle: Klucel (hydroxypropylcellulose) (HPC)",163 % of control
same,T/C,"dose: 64.0 mg/kg/injection, schedule: Q08DX002 (ip), vehicle: Klucel (hydroxypropylcellulose) (HPC)",86 % of control
same,T/C,"dose: 128.0 mg/kg/injection, schedule: Q01DX001 (sc), vehicle: Klucel (hydroxypropylcellulose) (HPC)",100 % of control
same,T/C,"dose: 128.0 mg/kg/injection, schedule: Q08DX002 (ip), vehicle: Klucel (hydroxypropylcellulose) (HPC)",86 % of control
O=C1C(NCC(O)CO)=C(N2CC2)C(=O)C(NCC(O)CO)=C1N1CC1 (stereo not drawn),T/C,"dose: 0.5 mg/kg/injection, schedule: Q01DX009 (ip), vehicle: saline",98 % of control
same,T/C,[7],233 % of control
same,T/C,"dose: 2.0 mg/kg/injection, schedule: Q01DX009 (ip), vehicle: saline",116 % of control and 213 % of control
same,T/C,[11],241 % of control and 243 % of control
same,T/C,[12],107 % of control
O=C(C[n+]1ccccc1)N/N=C/c1ccc([N+](=O)[O-])s1,T/C,[8],114 % of control
same,T/C,[9],90 % of control
same,T/C,[10],104 % of control
CC1(C)N=C(N)N=C(N)N1c1cccc(CCCCc2ccc(Cl)c(S(=O)(=O)F)c2)c1,T/C,"dose: 1.8 mg/kg/injection, schedule: Q01DX009 (ip), vehicle: saline",100 % of control
same,T/C,"dose: 3.13 mg/kg/injection, schedule: Q01DX009 (ip), vehicle: saline",112 % of control
same,T/C,[11],114 % of control
same,T/C,[12],122 % of control
same,T/C,"dose: 7.0 mg/kg/injection, schedule: Q04DX003 (ip), vehicle: saline",109 % of control
same,T/C,"dose: 9.0 mg/kg/injection, schedule: Q01DX009 (ip), vehicle: saline",107 % of control
same,T/C,[13],120 % of control
same,T/C,"dose: 14.0 mg/kg/injection, schedule: Q01DX009 (ip), vehicle: saline",150 % of control
same,T/C,"dose: 14.0 mg/kg/injection, schedule: Q04DX003 (ip), vehicle: saline",118 % of control
same,T/C,"dose: 28.0 mg/kg/injection, schedule: Q04DX003 (ip), vehicle: saline",118 % of control
same,T/C,"dose: 56.0 mg/kg/injection, schedule: Q04DX003 (ip), vehicle: saline",104 % of control
COc1ccc(OC)c(Br)c1,T/C,[2],110 % of control
same,T/C,[4],100 % of control
same,T/C,"dose: 178.0 mg/kg/injection, schedule: Q01DX009 (ip), vehicle: saline with Tween-80",118 % of control
same,T/C,[3],120 % of control
same,T/C,[5],100 % of control
same,T/C,"dose: 266.0 mg/kg/injection, schedule: Q01DX009 (ip), vehicle: saline with Tween-80",118 % of control
same,T/C,"dose: 400.0 mg/kg/injection, schedule: Q01DX009 (ip), vehicle: saline with Tween-80",109 % of control
same,T/C,[6],113 % of control
CC(=O)Nc1ccc2c(Nc3ccc(NS(C)(=O)=O)cc3)c3ccccc3nc2c1,T/C,"dose: 0.73 mg/kg/injection, schedule: Q01DX009 (ip), vehicle: saline",254 % of control
same,T/C,"dose: 0.88 mg/kg/injection, schedule: Q04DX003 (ip), vehicle: saline",163 % of control
same,T/C,"dose: 1.1 mg/kg/injection, schedule: Q01DX009 (ip), vehicle: saline",260 % of control
same,T/C,"dose: 1.32 mg/kg/injection, schedule: Q04DX003 (ip), vehicle: saline",195 % of control
same,T/C,"dose: 1.65 mg/kg/injection, schedule: Q01DX009 (ip), vehicle: saline",260 % of control
same,T/C,"dose: 2.0 mg/kg/injection, schedule: Q04DX003 (ip), vehicle: saline",200 % of control
same,T/C,"dose: 2.5 mg/kg/injection, schedule: Q01DX009 (ip), vehicle: saline",252 % of control and 262 % of control
same,T/C,"dose: 3.0 mg/kg/injection, schedule: Q04DX003 (ip), vehicle: saline",195 % of control
same,T/C,"dose: 5.0 mg/kg/injection, schedule: Q01DX009 (ip), vehicle: saline",92 % of control
same,T/C,"dose: 5.56 mg/kg/injection, schedule: Q04DX003 (ip), vehicle: saline",250 % of control
same,T/C,"dose: 5.6 mg/kg/injection, schedule: Q04DX003 (ip), vehicle: saline",236 % of control
same,T/C,"dose: 8.3 mg/kg/injection, schedule: Q04DX003 (ip), vehicle: saline",281 % of control
same,T/C,"dose: 8.33 mg/kg/injection, schedule: Q04DX003 (ip), vehicle: saline",250 % of control
same,T/C,"dose: 12.5 mg/kg/injection, schedule: Q04DX003 (ip), vehicle: saline",250 % of control and 272 % of control and 281 % of control
same,T/C,"dose: 18.7 mg/kg/injection, schedule: Q04DX003 (ip), vehicle: saline",250 % of control and 277 % of control
same,T/C,[14],122 % of control
same,T/C,"dose: 18.0 micrograms/kg/injection, schedule: Q04DX003 (ip), vehicle: saline",104 % of control
same,T/C,"dose: 27.0 micrograms/kg/injection, schedule: Q04DX003 (ip), vehicle: saline",109 % of control
same,T/C,"dose: 40.0 micrograms/kg/injection, schedule: Q04DX003 (ip), vehicle: saline",113 % of control
O.[NH-]C(Cc1ccc(O)cc1)C(=O)O.[Ni] (stereo not drawn),T/C,"dose: 6.25 mg/kg/injection, schedule: Q01DX009 (ip), vehicle: saline",98 % of control
same,T/C,[13],107 % of control
same,T/C,[14],100 % of control
CC[n+]1ccc2cc(OC)c(OC)cc2c1Cc1ccc(OC)c(OC)c1,T/C,"dose: 25.0 mg/kg/injection, schedule: Q01DX009 (ip), vehicle: saline",109 % of control
same,T/C,"dose: 50.0 mg/kg/injection, schedule: Q01DX009 (ip), vehicle: saline",118 % of control
same,T/C,"dose: 50.0 mg/kg/injection, schedule: Q04DX003 (ip), vehicle: saline",90 % of control
same,T/C,"dose: 100.0 mg/kg/injection, schedule: Q04DX003 (ip), vehicle: saline",104 % of control
